From ChEMBL document CHEMBL1201862, “PubChem BioAssay data set” (2004)
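1) Cells in 96-well plates. 2) Compound, 48 h, 5 concentrations. 3) Linear interpolation between surrounding doses. 4) Unreached endpoint = highest concentration. GI50 = concentration required for 50% inhibition of growth.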 Active and inactive are the calls of the source. Cut-off read from the data, not from the text of the source: active = GI50 up to about 1.1 µM and inactive = higher.

Assays:
Test in all cases: growth of human tumour cells (NCI), 48 h
OVCAR-4 = system: OVCAR-4
SR = system: SR
Malme-3M = system: Malme-3M
SF-295 = system: SF-295
HCT-116 = system: HCT-116
ACHN = system: ACHN
DU-145 = system: DU-145
DMS-114 = system: DMS-114
CCRF-CEM = system: CCRF-CEM
NCI-H226 = system: NCI-H226
HOP-18 = system: HOP-18
LOX IMVI = system: LOX IMVI
786-0 = system: 786-0
NCI-H460 = system: NCI-H460
SN12C = system: SN12C
MCF7 = system: MCF7
OVCAR-3 = system: OVCAR-3
MDA-N = system: MDA-N
SNB-78 = system: SNB-78
A549 = system: A549
SK-MEL-2 = system: SK-MEL-2
MDA-MB-231 = system: MDA-MB-231
HCT-15 = system: HCT-15
HCC 2998 = system: HCC 2998
TK-10 = system: TK-10
NCI-H522 = system: NCI-H522
SF-268 = system: SF-268
MOLT-4 = system: MOLT-4
Hs-578T = system: Hs-578T
OVCAR-5 = system: OVCAR-5
RPMI-8226 = system: RPMI-8226
T47D = system: T47D
HOP-62 = system: HOP-62
DLD-1 = system: DLD-1
UO-31 = system: UO-31
COLO 205 = system: COLO 205
K562 = system: K562
DMS-273 = system: DMS-273
XF498 = system: XF498
SK-MEL-28 = system: SK-MEL-28
M14 = system: M14
IGROV-1 = system: IGROV-1
SW-620 = system: SW-620
EKVX = system: EKVX
SNB-19 = system: SNB-19
CAKI-1 = system: CAKI-1
PC-3 = system: PC-3
KM12 = system: KM12
M19-MEL = system: M19-MEL
HOP-92 = system: HOP-92
SNB-75 = system: SNB-75
OVCAR-8 = system: OVCAR-8
SF-539 = system: SF-539
HT-29 = system: HT-29
UACC-257 = system: UACC-257
UACC-62 = system: UACC-62
SK-MEL-5 = system: SK-MEL-5
NCI/ADR-RES = system: NCI/ADR-RES
HL-60 = system: HL-60
NCI-H23 = system: NCI-H23
U-251 = system: U-251
SK-OV-3 = system: SK-OV-3
RXF 393 = system: RXF 393
A498 = system: A498
KM-20L2 = system: KM-20L2

Measured: GI50

COc1cc([C@@H]2c3cc4c(c(O)c3C[C@H]3COC(=O)[C@@H]32)OCO4)cc(OC)c1OC [BETA-PELTATIN A]
inactive: SR 109 µM | CCRF-CEM 1.8 µM | HOP-18 1.26 µM | TK-10 31.6 µM | OVCAR-5 21.4 µM | T47D 51.9 µM | K562 19.5 µM | SK-MEL-28 4.18 µM | SNB-75 1.61 µM
active: OVCAR-4 0.0627 µM | Malme-3M 0.0156 µM | SF-295 0.0238 µM | HCT-116 0.015 µM | ACHN 0.0241 µM | DU-145 < 0.0241 µM | DMS-114 0.015 µM | NCI-H226 0.302 µM | LOX IMVI 0.0267 µM | 786-0 0.0241 µM | NCI-H460 0.0254 µM | SN12C 0.015 µM | MCF7 0.015 µM | OVCAR-3 0.015 µM | MDA-N 0.000284 µM | SNB-78 0.015 µM | A549 0.015 µM | SK-MEL-2 0.015 µM | MDA-MB-231 0.00596 µM | HCC 2998 0.015 µM | NCI-H522 0.0676 µM | SF-268 0.015 µM | MOLT-4 0.015 µM | Hs-578T 0.0241 µM | RPMI-8226 0.015 µM | HOP-62 0.323 µM | DLD-1 0.015 µM | UO-31 0.0693 µM | COLO 205 0.0238 µM | DMS-273 0.015 µM | XF498 0.015 µM | M14 0.0241 µM | IGROV-1 0.015 µM | SW-620 0.015 µM | EKVX 0.282 µM | SNB-19 0.015 µM | CAKI-1 0.015 µM | PC-3 0.0241 µM | KM12 0.015 µM | M19-MEL 0.0548 µM | HOP-92 0.015 µM | OVCAR-8 0.015 µM
0.015 µM: HCT-15

CC1(C)OC2CC(=O)OCC23C1CC(=O)C1(C)C3CCC2(C)C(c3ccoc3)OC(=O)C3OC321 (stereo not drawn)
> 125 µM: HCT-15
inactive: OVCAR-4 > 125 µM | Malme-3M 123 µM | SF-295 > 125 µM | SF-539 > 117 µM | HCT-116 > 125 µM | HT-29 > 125 µM | UACC-257 124 µM | DMS-114 > 125 µM | CCRF-CEM > 125 µM | NCI-H226 > 125 µM | HOP-18 > 125 µM | LOX IMVI > 125 µM | UACC-62 > 125 µM | SK-MEL-5 > 125 µM | NCI/ADR-RES > 125 µM | NCI-H460 > 125 µM | SN12C > 39.5 µM | HL-60 101 µM | MCF7 > 70.3 µM | NCI-H23 > 125 µM | OVCAR-3 > 125 µM | U-251 > 125 µM | SNB-78 > 125 µM | SK-OV-3 > 125 µM | A549 > 125 µM | SK-MEL-2 > 125 µM | RXF 393 > 117 µM | HCC 2998 > 125 µM | NCI-H522 > 125 µM | A498 > 125 µM | SF-268 > 125 µM | MOLT-4 > 125 µM | OVCAR-5 > 125 µM | RPMI-8226 > 125 µM | HOP-62 > 125 µM | DLD-1 > 125 µM | UO-31 > 125 µM | COLO 205 > 125 µM | K562 78.9 µM | DMS-273 > 125 µM | XF498 > 125 µM | SK-MEL-28 > 125 µM | IGROV-1 > 125 µM | SW-620 > 125 µM | EKVX > 58.1 µM | KM-20L2 > 125 µM | SNB-19 > 125 µM | CAKI-1 16.1 µM | KM12 > 125 µM | M19-MEL > 125 µM | SNB-75 64.7 µM | OVCAR-8 11.7 µM

CN(C)C(=O)OCOC(=O)N(C)C
> 100 µM: HCT-15
inactive: OVCAR-4 > 100 µM | Malme-3M > 100 µM | SF-295 > 100 µM | SF-539 > 100 µM | HCT-116 > 100 µM | HT-29 > 100 µM | DMS-114 > 100 µM | CCRF-CEM > 100 µM | NCI-H226 > 100 µM | HOP-18 > 100 µM | LOX IMVI > 100 µM | UACC-62 > 100 µM | SK-MEL-5 > 100 µM | NCI/ADR-RES > 100 µM | NCI-H460 > 100 µM | SN12C > 100 µM | HL-60 > 31.6 µM | MCF7 > 100 µM | NCI-H23 > 100 µM | OVCAR-3 > 100 µM | U-251 > 100 µM | SNB-78 > 100 µM | SK-OV-3 > 100 µM | A549 > 100 µM | SK-MEL-2 > 100 µM | RXF 393 > 100 µM | HCC 2998 > 91.8 µM | NCI-H522 > 100 µM | A498 > 100 µM | SF-268 > 100 µM | MOLT-4 > 100 µM | OVCAR-5 > 100 µM | RPMI-8226 > 100 µM | HOP-62 > 100 µM | DLD-1 > 100 µM | UO-31 > 100 µM | COLO 205 > 100 µM | K562 > 100 µM | DMS-273 > 100 µM | XF498 > 100 µM | SK-MEL-28 > 100 µM | IGROV-1 > 100 µM | SW-620 > 100 µM | EKVX > 100 µM | KM-20L2 > 100 µM | SNB-19 > 100 µM | CAKI-1 > 100 µM | KM12 > 100 µM | M19-MEL > 100 µM | HOP-92 > 92.5 µM | SNB-75 > 82.8 µM | OVCAR-8 > 100 µM
